Assay results from PubChem BioAssay AID2060900 (Molecular Pharmacology Branch, DTP, NCI, 2025).

Test system: 521955-158-R2-J5-PDC complex spheroids, viability
Assay: Anticancer human tumor 521955-158-R2-J5-PDC patient-derived pancreatic carcinoma cell line growth inhibition [RAS]
Settings: for IC50: curve of first compound; for viability, T/C: stronger effect = lower value
Excerpt: RAS pathway inhibitors in Combinations in Complex Spheroids
A high-throughput screen of multi-cell type tumor spheroids was designed to identify active combinations of RAS pathway inhibitors and targeted small molecules. Complex spheroids include a stromal component modeled by human endothelial cells (HUVEC) and fibroblasts modeled by human mesenchymal stem cells (MSCs). The concentration ranges selected for each drug and investigational agent were based upon clinically achievable concentrations if the clinical Cmax of the agent was known.
Compounds. The drugs and investigational agents: abemaciclib (NSC768073), cobimetinib (NSC768068), divarasib (GDC6063, NSC841802), docetaxel (NSC628503), GDC-1971 (RLY-1971, NSC841576), gemcitabine (NSC613327), inavolisib (NSC800729), ipatasertib (NSC767898), KB-0742 (NSC834161), MRTX-1133 (NSC836407), osimertinib (NSC779217), RMC-4630 (NSC839698), RMC-6236 (NSC851965), RMC-6291 (NSC852671), Ro-3306 (NSC812927), sapanisertib (NSC764658), SN-38 (NSC673596), staurosporine (NSC755774), SY5609 (NSC837396), and tovorafenib (DAY101, NSC766906), were obtained from the National Cancer Institute (NCI) Developmental Therapeutics Program Chemical Repository. The FDA-approved anticancer drug set is available from the NCI Developmental Therapeutics Program. […] The stock solutions were prepared in dimethyl sulfoxide (DMSO, Sigma-Aldrich, St. Louis, MO, cat. D2650) at 800-fold the tested concentration and stored at -70 degrees C prior to their use. All drugs and investigational agents were tested over a range starting from a high concentration at or near the clinical Cmax and decreasing in half-log increments. If the clinical Cmax for an agent had not been determined, the highest concentration tested was 10 microM.
Cell Culture. All cells were maintained in an incubator at 37 degrees C and 5% CO2 with 95% humidity. The PDC lines were cultured according to standard operating procedures established by the NCI PDMR. All PDCs were thawed and cultured in Matrigel-coated flasks prepared with a working solution of 1X Ham's F-12 nutrient mix, without supplementation (Invitrogen, Waltham, MA, cat. 11765054), 100 U/mL penicillin-streptomycin (Invitrogen, cat. 15140122), and 2.5% Matrigel (Corning Inc., Corning, NY, cat. 354248) for the first three passages. The 362531-283-R-J2-PDC and 782815-120-R-J1-PDC lines were cultured in 6C/Colon 1B media, which includes advanced DMEM/F-12 (Thermo Fisher Scientific, cat. 12634028), 10 mM HEPES (Thermo Fisher Scientific, cat. 15630080), 1X GlutaMAX supplement (Thermo Fisher Scientific, cat. 35050061), 0.1 mg/mL primocin (InvivoGen, San Diego, CA, cat. ant-pm-2), 10% defined fetal bovine serum, heat inactivated (HyClone Laboratories Inc., Logan, UT, cat. SH30070.03HI), 50% L-WRN conditioned media (ATCC, cat. CRL-3276), 1.25 mM N-Acetyl-L-cysteine (Sigma-Aldrich, cat. A9165), 10 mM nicotinamide (Sigma-Aldrich, cat. N0636), 1X B-27 supplement (Thermo Fisher Scientific, cat. 17504044), 1X N-2 supplement (Thermo Fisher Scientific, cat. 17502048), 50 ng/mL human EGF (Thermo Fisher Scientific, cat. PHG0311), and 10 microM Y-27632 dihydrochloride (Tocris Bioscience, cat. 1254). The K12877-001-R-J1-PDC line was cultured in 6I media, which includes all 6C/Colon 1B media plus 10 ng/mL human FGF-10 (PeproTech, cat. 100-26), 1 ng/mL human FGF-2 (PeproTech, cat. 100-18B), 1 µM prostaglandin E2 (Tocris Bioscience, cat. 2296), […] hydrocortisone (Sigma-Aldrich, cat. H4001), and […] bovine insulin (Sigma-Aldrich, cat. I6634). The K86415-001-R-J1-PDC line was cultured in 6D media, which includes all 6C/Colon 1B media components minus the L-WRN conditioned media. The 485176-168-R4-J1-PDC was cultured in PANC media, which includes all 6C/Colon 1B media plus 100 ng/mL human FGF-10 (PeproTech, cat. 100-26), 500 nM SB-431542 (Selleckchem, cat. S1067), and 10 nM gastrin (Tocris Bioscience, cat. 3006). […]
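Also: compound exposure lasted seven days before the viability read.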
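For viability, T/C in this document: spheroids also contain HUVEC endothelial cells and mesenchymal stem cells as stroma.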

Work on `Cc1nc(N2CCC3(CC2)COC(C)C3N)c(CO)nc1Sc1ccnc(N)c1Cl` (configuration not stated) + C#Cc1c(F)ccc2cc(O)cc(-c3ncc4c(N5CC6CCC(C5)N6)nc(OCC56CCCN5CC(F)C6)nc4c3F)c12 yielded an IC50 (second compound 0.0316 µM) of 598 nM, an IC50 (second compound 0.1 µM) of 177 nM and an IC50 (second compound 0.316 µM) of 115 nM. For the same compound, the IC50 (second compound 1 µM) was < 31.6 nM, the IC50 (second compound 3.16 µM) was < 31.6 nM and the IC50 (second compound 10 µM) was < 31.6 nM. It also gave a viability, T/C (second compound 0.0316 µM, first compound 0.0316 µM) of 50.1%, a viability, T/C (second compound 0.0316 µM, first compound 0.1 µM) of 63.7% and a viability, T/C (second compound 0.0316 µM, first compound 0.316 µM) of 60.6%. It also gave a viability, T/C (second compound 0.0316 µM, first compound 1 µM) of 43.5%, a viability, T/C (second compound 0.0316 µM, first compound 3.16 µM) of 42.3% and a viability, T/C (second compound 0.0316 µM, first compound 10 µM) of 37.4%. The viability, T/C (second compound 0.1 µM, first compound 0.0316 µM) was 61.1%, the viability, T/C (second compound 0.1 µM, first compound 0.1 µM) was 58.3% and the viability, T/C (second compound 0.1 µM, first compound 0.316 µM) was 41.9%. The viability, T/C (second compound 0.1 µM, first compound 1 µM) was 37.6%, the viability, T/C (second compound 0.1 µM, first compound 3.16 µM) was 39.7% and the viability, T/C (second compound 0.1 µM, first compound 10 µM) was 28.2%. It also gave a viability, T/C (second compound 0.316 µM, first compound 0.0316 µM) of 63.1%, a viability, T/C (second compound 0.316 µM, first compound 0.1 µM) of 46.2% and a viability, T/C (second compound 0.316 µM, first compound 0.316 µM) of 44.1%. For the same compound, the viability, T/C (second compound 0.316 µM, first compound 1 µM) was 37.7%, the viability, T/C (second compound 0.316 µM, first compound 3.16 µM) was 27.2% and the viability, T/C (second compound 0.316 µM, first compound 10 µM) was 24%. It also gave a viability, T/C (second compound 1 µM, first compound 0.0316 µM) of 45.3%, a viability, T/C (second compound 1 µM, first compound 0.1 µM) of 42.9% and a viability, T/C (second compound 1 µM, first compound 0.316 µM) of 39.3%. The viability, T/C (second compound 1 µM, first compound 1 µM) was 30.7%, the viability, T/C (second compound 1 µM, first compound 3.16 µM) was 33.2% and the viability, T/C (second compound 1 µM, first compound 10 µM) was 22.9%. For the same compound, the viability, T/C (second compound 3.16 µM, first compound 0.0316 µM) was 37.1%, the viability, T/C (second compound 3.16 µM, first compound 0.1 µM) was 39.7% and the viability, T/C (second compound 3.16 µM, first compound 0.316 µM) was 34.4%. It also gave a viability, T/C (second compound 3.16 µM, first compound 1 µM) of 28.3%, a viability, T/C (second compound 3.16 µM, first compound 3.16 µM) of 19% and a viability, T/C (second compound 3.16 µM, first compound 10 µM) of 20.1%. It also gave a viability, T/C (second compound 10 µM, first compound 0.0316 µM) of 48.7%, a viability, T/C (second compound 10 µM, first compound 0.1 µM) of 28.2% and a viability, T/C (second compound 10 µM, first compound 0.316 µM) of 21.3%. For the same compound, the viability, T/C (second compound 10 µM, first compound 1 µM) was 18.5%, the viability, T/C (second compound 10 µM, first compound 3.16 µM) was 13.7% and the viability, T/C (second compound 10 µM, first compound 10 µM) was 5%.
